# Marks after values point to notes of the source that are not given here.
# Assay: Molar Relaxivities 1/T1 of Paramagnetic Compounds
# Assay type: physicochemical
# Conditions: in water at 10.7 MHz, 37° C. (values marked *)
row,"Relaxation rate, molar relaxivity 1/T1",SMILES
1,5.05* (mMs)^−1,O=C([O-])CN(CCN(CC(=O)[O-])CC(=O)O)CCN(CC(=O)[O-])CC(=O)O.[Gd+3] [GDDTP A]
2,14.67* (mMs)^−1,[Cl][Gd]([Cl])[Cl] [GdCl]
3,9.32* (mMs)^−1,[Cl][Mn][Cl] [MnCl2]
4,10.39* (mMs)^−1,O=S(=O)([O-])c1ccc(-c2c3nc(c(-c4ccc(S(=O)(=O)[O-])cc4)c4ccc([n-]4)c(-c4ccc(S(=O)(=O)[O-])cc4)c4ccc([n-]4)c(-c4ccc(S(=O)(=O)[O-])cc4)c4nc2C=C4)C=C3)cc1.[Mn+3] [MnTPPS4]

# From US6391280B1, “J chain polypeptide targeting molecule linked to an imaging agent” (Epicyte Pharmaceutical, Inc., priority 1997, dated 2002)
